The values below come from patent publication US11104690B2, “Indazole derivatives useful as inhibitors of diacylglyceride O-acyltransferase 2” (Merck Sharp & Dohme Corp., priority 2016, dated 2021).

This assay deals with Human DGAT2 (Homo sapiens (Human), UniProt Q96PD7). Briefly: DGAT2 Enzymatic Activity Assay (triolein formation, LC/MS/MS). It is filed as biochemical. The settings on record: hDGAT2 Sf-9 membrane prep; 25 μM diolein, 10 μM oleoyl-CoA; room temperature. How it is done:
Sf-9 insect cells were maintained in Grace's insect cell culture medium with 10% heated-inactivated fetal bovine serum, 1% Pluronic F-68 and 0.14 μg/m Kanamycine sulfate in Erlenmeyer flasks at 28° C. in a shaker incubator. After infection with untagged hDGAT2 baculovirus at multiplicity of infection (MOI) 0.1 for 48 hours, cells were harvested. Cell pellets were suspended in buffer containing 10 mM Tris-HC (pH 7.5), 1 mM EDTA (pH 8.0), 250 mM sucrose and Complete Protease Inhibitor Cocktail (Roche Diagnostics Corp., Indianapolis, Ill.), and sonicated on ice. Membrane fractions were isolated by ultracentrifugation (100,000×g pellet), resuspended in the same buffer, and frozen (−80° C.) for later use. The protein concentration was determined with the BCA Protein Assay kit (Pierce Biotechnology Inc., Rockford, Ill.). Expression of protein levels was analyzed by immunoblotting with goat polyclonal DGAT2 antibody C-15 and donkey anti-goat IgG HRP (Santa Cruz Biotechnology, Inc., Santa Cruz, Calif.) followed by detection with ECL reagent (GE Healthcare, Piscataway, N.J.).
LC/MS/MS analyses were performed using Thermal Fisher's LX4-TSQ Vantage system. This system consists of an Agilent binary high-performance liquid chromatography (HPLC) pumps and a TSQ Vantage triple quadrupole MS/MS instrument. For each sample, 2 μL samples from the top organic layer of in-plate liquid-liquid extraction were injected onto a Thermo Betabasic C4 column (2.1 mm×20 mm, 5 μm particle size). The samples were then eluted using the following conditions; mobile phase: MeOH/water with 0.1% ammonium format=92/8 (v/v), flow rate: 1 mL/min, temperature: 25 C. Data was acquired in positive mode using a heated electrospray ionization (HESI) interface. The operational parameters for the TSQ Vantage MS/MS instrument were a spray voltage of 3000 V, capillary temperature of 280° C., vaporizer temperature 400° C., shealth gas 60 arbitrary unit, Aux gas 40 arbitrary units, S-lens 113 and collision gas 0.16 Pascals. […] (SRM) chromatograms of triolein (Q1: 902.9>Q3:602.3) and internal standard ([…]) were collected for 40 sec. The peak area was integrated by Xcalibur Quan software. The ratio between the triolein generated in the reaction and spiked in internal standard was used to generate percentage inhibition and IC50 values. Compound percentage inhibition was calculated by the following formula: Inhibition %=1−[(compound response−low control)/(high control−low control)]×100%. Potent compounds were titrated and IC50 were calculated by 4 parameter sigmoidal curve fitting formula.
DGAT2 activity was determined by measuring the amount of enzymatic product triolein (1,2,3-Tri(cis-9-octadecenoyl)glycerol) using the membrane prep mentioned above. The assay was carried out in deep well 384 plates in a final volume of 40 μL at room temperature. The assay mixture contained the following: assay buffer (100 mM Tris.Cl, pH 7.0, 20 mM MgCl2, 5% ethanol), 25 μM of diolein, 10 μM of oleoyl-CoA and 10 ng/μL of DGAT2 membrane.

Human DGAT2, sequence (Q96PD7 whole entry): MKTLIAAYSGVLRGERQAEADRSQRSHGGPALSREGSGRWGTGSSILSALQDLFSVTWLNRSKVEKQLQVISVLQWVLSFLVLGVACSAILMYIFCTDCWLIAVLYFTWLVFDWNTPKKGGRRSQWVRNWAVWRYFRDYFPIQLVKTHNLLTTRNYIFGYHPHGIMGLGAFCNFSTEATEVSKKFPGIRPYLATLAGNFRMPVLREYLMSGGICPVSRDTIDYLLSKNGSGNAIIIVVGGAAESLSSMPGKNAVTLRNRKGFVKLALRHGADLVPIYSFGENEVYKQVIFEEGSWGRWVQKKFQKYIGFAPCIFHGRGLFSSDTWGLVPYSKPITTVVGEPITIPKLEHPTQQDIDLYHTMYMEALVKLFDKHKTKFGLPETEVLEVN

`O=C(NC1CNCCS(=O)(=O)C1)c1ccc2c(-c3ccccc3Cl)nn(-c3ccc(F)cc3)c2c1` (racemic) [Example 102, 3-(2-chlorophenyl)-N-(1,1-dioxido-1,4-thiazepan-6-yl)-1-(4-fluorophenyl)-1H-indazole-6-carboxamide] gave an IC50 of 179 nM.
Then `O=C(NC(CCN1CCOCC1)c1ccccc1)c1ccc2c(-c3ccccc3Cl)nn(-c3ccc(F)cc3)c2c1` (racemic) [Example 109, 3-(2-chlorophenyl)-1-(4-fluorophenyl)-N-(3-morpholin-4-yl-1-phenylpropyl)-1H-indazole-6-carboxamide], with 532 nM; and `CC(Cc1ccccn1)NC(=O)c1ccc2c(-c3ccccc3Cl)nn(-c3ccc(F)cc3)c2c1` (racemic) [Example 112, 3-(2-chlorophenyl)-1-(4-fluorophenyl)-N-(1-methyl-2-pyridin-2-ylethyl)-1H-indazole-6-carboxamide], with 593 nM; and `CC(O)CC(C)(C)NC(=O)c1ccc2c(-c3ccccc3Cl)nn(-c3ccc(F)cc3)c2c1` (racemic) [Example 113, 3-(2-chlorophenyl)-1-(4-fluorophenyl)-N-(3-hydroxy-1,1-dimethylbutyl)-1H-indazole-6-carboxamide], with 41 nM.
The value for `CN(C)C(=O)c1cccc(-c2nn(-c3ccc(F)cc3)c3cc(C(=O)NC4(C)CCS(=O)(=O)C4)ccc23)c1` (racemic) [Example 148, 3-[3-(dimethylcarbamoyl)phenyl]-1-(4-fluorophenyl)-N-(3-methyl-1,1-dioxidotetrahydrothiophen-3-yl)-1H-indazole-6-carboxamide] was 855 nM; that for `CC1(NC(=O)c2ccc3c(-c4cccc(C(N)=O)c4)nn(-c4ccc(F)cc4)c3c2)CCS(=O)(=O)C1` (racemic) [Example 149, 3-(3-carbamoylphenyl)-1-(4-fluorophenyl)-N-(3-methyl-1,1-dioxidotetrahydrothiophen-3-yl)-1H-indazole-6-carboxamide] was 249 nM; that for `CC1(NC(=O)c2ccc3c(-c4cccc(C(C)(C)O)c4)nn(-c4ccc(F)cc4)c3c2)CCS(=O)(=O)C1` (racemic) [Example 150, 1-(4-fluorophenyl)-3-[3-(1-hydroxy-1-methylethyl)phenyl]-N-(3-methyl-1,1-dioxidotetrahydrothiophen-3-yl)-1H-indazole-6-carboxamide] was 311 nM.
Then `Cn1nnc2ccc(-c3nn(-c4ccc(F)cc4)c4cc(C(=O)NC5(C)CCS(=O)(=O)C5)ccc34)cc21` (racemic) [Example 163, 1-(4-fluorophenyl)-3-(1-methyl-1H-benzotriazol-6-yl)-N-(3-methyl-1,1-dioxidotetrahydrothiophen-3-yl)-1H-indazole-6-carboxamide], with 340 nM.
In turn, `Cc1nnc(-c2cccc(-c3nn(-c4ccc(F)cc4)c4cc(C(=O)NC5(C)CCS(=O)(=O)C5)ccc34)c2)o1` (racemic) [Example 164, 1-(4-fluorophenyl)-N-(3-methyl-1,1-dioxidotetrahydrothiophen-3-yl)-3-[3-(5-methyl-1,3,4-oxadiazol-2-yl)phenyl]-1H-indazole-6-carboxamide] returned an IC50 of 28 nM.
The value for `CC1(NC(=O)c2ccc3c(-c4cccc(-n5cccn5)c4)nn(-c4ccc(F)cc4)c3c2)CCS(=O)(=O)C1` (racemic) [Example 165, 1-(4-fluorophenyl)-N-(3-methyl-1,1-dioxidotetrahydrothiophen-3-yl)-3-[3-(1H-pyrazol-1-yl)phenyl]-1H-indazole-6-carboxamide] was 7 nM; that for `O=C(NC1CCS(=O)(=O)C1)c1ccc2c(-c3ccccc3Cl)nn(Cc3ccccc3)c2c1` (racemic) [Example 167, (±)-1-Benzyl-3-(2-chlorophenyl-N-(1,1-dioxidotetrahydrothiophen-3-yl)-1-indazole-6-carboxamide] was 383 nM.
The value for `COC(=O)c1cccc(-n2nc(-c3ccccc3Cl)c3ccc(C(=O)NC4(C)CCS(=O)(=O)C4)cc32)c1` (racemic) [Example 180, methyl 3-{3-(2-chlorophenyl)-6-[(3-methyl-1,1-dioxidotetrahydrodioxidotetra-hydrodioxidotetrahydrodioxido-tetrahydro-thiophen-3-yl)carbamoyl]-1H-indazol-1-yl}benzoate] was 222 nM; that for `CC1(NC(=O)c2ccc3c(-c4ccccc4Cl)nn(-c4ncc(F)cn4)c3c2)CCS(=O)(=O)C1` (racemic) [Example 181, 3-(2-chlorophenyl)-1-(5-fluoropyrimidin-2-yl)-N-(3-methyl-1,1-dioxidotetradioxidotetradioxido-tetradioxidotetra-hydrothiophen-3-yl)-1H-indazole-6-carboxamide] was 391 nM.
The value for `CC1(NC(=O)c2ccc3c(-c4ccccc4Cl)nn(-c4nnc(C(F)(F)F)s4)c3c2)CCS(=O)(=O)C1` (racemic) [Example 182, 3-(2-chlorophenyl)-N-(3-methyl-1,1-dioxidotetrahydrothiophen-3-yl)-1-[5-(trifluoromethyl)-1,3,4-thiadiazol-2-yl]-1H-indazole-6-carboxamide] was 371 nM; that for `CC1(NC(=O)c2ccc3c(-c4ccccc4Cl)nn(-c4nnc(C(C)(C)C)s4)c3c2)CCS(=O)(=O)C1` (racemic) [Example 183, 1-(5-tert-butyl-1,3,4-thiadiazol-2-yl)-3-(2-chlorophenyl)-N-(3-methyl-1,1-dioxidotetrahydrothiophen-3-yl)-1H-indazole-6-carboxamide] was 460 nM; that for `Cn1ccc(-n2nc(-c3ccccc3Cl)c3ccc(C(=O)NC4(C)CCS(=O)(=O)C4)cc32)n1` (racemic) [Example 184, 3-(2-chlorophenyl)-N-(3-methyl-1,1-dioxidotetrahydrothiophen-3-yl)-1-(1-methyl-1H-pyrazol-3-yl)-1H-indazole-6-carboxamide] was 201 nM.
In turn, `Cc1ccc(-n2nc(-c3ccccc3Cl)c3ccc(C(=O)NC4(C)CCS(=O)(=O)C4)cc32)nc1` (racemic) [Example 185, 3-(2-chlroophenyl)-N-(3-methyl-1,1-dioxidotetrahydrothiophen-3-yl)-1-(5-methylpyridin-2-yl)-1H-indazole-6-carboxamide] displayed an IC50 of 9.5 nM.
The value for `COc1cccc(-n2nc(-c3ccccc3Cl)c3ccc(C(=O)NC4(C)CCS(=O)(=O)C4)cc32)n1` (racemic) [Example 186, 3-(2-chlorophenyl)-1-(6-methoxypyridin-2-yl)-N-(3-methyl-1,1-dioxidotetrahydrothiophen-3-yl)-1H-indazole-6-carboxamide] was 322 nM; that for `COC(=O)c1ccc(-n2nc(-c3ccccc3Cl)c3ccc(C(=O)NC4(C)CCS(=O)(=O)C4)cc32)cc1` (racemic) [Example 187, methyl 4-{3-(2-chlorophenyl)-6-[(3-methyl-1,1-dioxidotetrahydrothiophen-3-yl)carbamoyl]-1H-indazol-1-yl}benzoate] was 644 nM.
Regarding `CCOC(=O)c1coc(-n2nc(-c3ccccc3Cl)c3ccc(C(=O)NC4(C)CCS(=O)(=O)C4)cc32)n1` (racemic) [Example 188, ethyl 2-{3-(2-chlorophenyl)-6-[(3-methyl-1,1-dioxidotetrahydrothiophen-3-yl)carbamoyl]-1H-indazol-1-yl}-1,3-oxazole-4-carboxylate], inhibition was half-maximal at 95 nM (IC50).
Then `CC1(NC(=O)c2ccc3c(-c4ccccc4Cl)nn(-c4cccnc4)c3c2)CCS(=O)(=O)C1` (racemic) [Example 189, 3-(2-chlorophenyl)-N-(3-methyl-1,1-dioxidotetrahydrothiophen-3-yl)-1-pyridin-3-yl-1H-indazole-6-carboxamide], with 409 nM; and `CC1(NC(=O)c2ccc3c(-c4ccccc4Cl)nn(-c4nnc(C5CC5)s4)c3c2)CCS(=O)(=O)C1` (racemic) [Example 190, 3-(2-chlorophenyl)-1-(5-cyclopropyl-1,3,4-thiadiazol-2-yl)-N-(3-methyl-1,1-dioxidotetrahydrothiophen-3-yl)-1H-indazole-6-carboxamide], with 45 nM.

As usually defined, the IC50 is the point on the concentration scale where inhibition reaches its midpoint. High values mean a need for much substance, low ones inhibition by little substance.
